Reference: ChEMBL document CHEMBL1201862, “PubChem BioAssay data set” (2004)
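Compound exposure: 48 hours, 5 concentrations, 96-well plates. GI50: concentration for 50% inhibition of growth.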 Active and inactive are the calls of the source. No stated cut-off is given here; in the data, active = GI50 up to about 1.1 µM and inactive = higher.

How the values were obtained:
Experiment in all cases: NCI anticancer screen, dose series, 48 h
OVCAR-5 = test system: OVCAR-5
K562 = test system: K562
MDA-MB-435 = test system: MDA-MB-435
NCI/ADR-RES = test system: NCI/ADR-RES
SN12C = test system: SN12C
Malme-3M = test system: Malme-3M
UO-31 = test system: UO-31
HCC 2998 = test system: HCC 2998
MOLT-4 = test system: MOLT-4
LOX IMVI = test system: LOX IMVI
EKVX = test system: EKVX
BT-549 = test system: BT-549
Hs-578T = test system: Hs-578T
UACC-62 = test system: UACC-62
SK-MEL-28 = test system: SK-MEL-28
HCT-116 = test system: HCT-116
HCT-15 = test system: HCT-15
OVCAR-3 = test system: OVCAR-3
NCI-H460 = test system: NCI-H460
HOP-62 = test system: HOP-62

Compound	GI50 (OVCAR-5)	GI50 (K562)	GI50 (MDA-MB-435)	GI50 (NCI/ADR-RES)	GI50 (SN12C)	GI50 (Malme-3M)	GI50 (UO-31)	GI50 (HCC 2998)	GI50 (MOLT-4)	GI50 (LOX IMVI)	GI50 (EKVX)	GI50 (BT-549)	GI50 (Hs-578T)	GI50 (UACC-62)	GI50 (SK-MEL-28)	GI50 (HCT-116)	GI50 (HCT-15) [µM]	GI50 (OVCAR-3)	GI50 (NCI-H460)	GI50 (HOP-62)
O=C(O)CCSc1ncnc2[nH]cnc12	> 100 µM (inactive)	> 100 µM (inactive)	> 100 µM (inactive)	> 100 µM (inactive)	> 100 µM (inactive)	> 100 µM (inactive)	> 100 µM (inactive)	> 100 µM (inactive)	> 100 µM (inactive)	> 100 µM (inactive)	> 100 µM (inactive)	> 100 µM (inactive)	> 100 µM (inactive)	> 100 µM (inactive)	> 100 µM (inactive)	> 100 µM (inactive)	> 100	> 100 µM (inactive)	> 100 µM (inactive)	> 100 µM (inactive)
CC(=O)O[C@H]1CC[C@@]2(C)C(=CC[C@@H]3[C@@H]2CC[C@]2(C)c4c(cc(C#N)c(=N)n4C(C)=O)C[C@@H]32)C1	27.4 µM (inactive)	4.06 µM (inactive)	19.6 µM (inactive)	17.2 µM (inactive)	17.4 µM (inactive)	17.2 µM (inactive)	22 µM (inactive)	23.2 µM (inactive)	12.2 µM (inactive)	16.7 µM (inactive)	15.9 µM (inactive)	15.4 µM (inactive)	25.5 µM (inactive)	15.7 µM (inactive)	18.7 µM (inactive)	14.8 µM (inactive)	15.2	17.6 µM (inactive)	16.4 µM (inactive)	24.2 µM (inactive)
N#Cc1nc(-c2cccs2)oc1N	> 100 µM (inactive)	> 100 µM (inactive)	> 100 µM (inactive)	> 100 µM (inactive)	> 100 µM (inactive)	> 100 µM (inactive)	62.4 µM (inactive)	> 100 µM (inactive)	> 100 µM (inactive)	63.5 µM (inactive)	75 µM (inactive)	> 100 µM (inactive)	> 100 µM (inactive)	> 100 µM (inactive)	> 100 µM (inactive)	> 100 µM (inactive)	> 100	> 100 µM (inactive)	> 100 µM (inactive)	> 100 µM (inactive)
COc1cccc(C(C#N)NC23CC4CC(CC(C4)C2)C3)c1 (stereo not given)	> 100 µM (inactive)	> 100 µM (inactive)	> 100 µM (inactive)	> 100 µM (inactive)	> 100 µM (inactive)	> 100 µM (inactive)	> 100 µM (inactive)	> 100 µM (inactive)	> 100 µM (inactive)	> 100 µM (inactive)	85.5 µM (inactive)	> 100 µM (inactive)	> 100 µM (inactive)	> 100 µM (inactive)	> 100 µM (inactive)	> 100 µM (inactive)	> 100	> 100 µM (inactive)	> 100 µM (inactive)	> 100 µM (inactive)
O=C(O)CCCCn1ccc(=O)[nH]c1=O	> 100 µM (inactive)	> 100 µM (inactive)	> 100 µM (inactive)	> 100 µM (inactive)	> 100 µM (inactive)	> 100 µM (inactive)	> 100 µM (inactive)	> 100 µM (inactive)	> 100 µM (inactive)	> 100 µM (inactive)	> 100 µM (inactive)	> 100 µM (inactive)	> 100 µM (inactive)	> 100 µM (inactive)	> 100 µM (inactive)	> 100 µM (inactive)	> 100	> 100 µM (inactive)	> 100 µM (inactive)	> 100 µM (inactive)
C/C(=N\Nc1nc2ccccc2s1)c1cccc[n+]1[O-]	2.33 µM (inactive)	31.4 µM (inactive)	99.1 µM (inactive)	29.7 µM (inactive)	48.9 µM (inactive)	1.09 µM (active)	20 µM (inactive)	0.0252 µM (active)	1.81 µM (inactive)	48.6 µM (inactive)	2.33 µM (inactive)	> 100 µM (inactive)	> 100 µM (inactive)	50.1 µM (inactive)	> 100 µM (inactive)	7.55 µM (inactive)	34.2	24.8 µM (inactive)	46.2 µM (inactive)	48.3 µM (inactive)
C[C@]12CC[C@H]3[C@@H](CC[C@]4(O)C[C@@H](O)CC[C@]34CO)[C@@]1(O)CC[C@@H]2C1=CC(=O)OC1 [STROPHANTHIDOL]	3.07 µM (inactive)	2.21 µM (inactive)	2.57 µM (inactive)	1.51 µM (inactive)	3.47 µM (inactive)	2.21 µM (inactive)	1.9 µM (inactive)	22.9 µM (inactive)	0.225 µM (active)	2.01 µM (inactive)	1.39 µM (inactive)	1.51 µM (inactive)	1.46 µM (inactive)	3.52 µM (inactive)	4.78 µM (inactive)	0.553 µM (active)	2	0.993 µM (active)	0.431 µM (active)	1.36 µM (inactive)
CC(C)=CCC[C@@H](C)C1=C(O)C(=O)C(C)=C(Nc2ccccc2Br)C1=O	20.3 µM (inactive)	10.8 µM (inactive)	19.9 µM (inactive)	3.78 µM (inactive)	12.5 µM (inactive)	9.4 µM (inactive)	11.3 µM (inactive)	30.4 µM (inactive)	4.09 µM (inactive)	11.9 µM (inactive)	17.3 µM (inactive)	14 µM (inactive)	13.8 µM (inactive)	13.3 µM (inactive)	14.4 µM (inactive)	18.1 µM (inactive)	6.65	4.13 µM (inactive)	13.4 µM (inactive)	12.4 µM (inactive)
CC1(C)CC(=O)C(CCC(=O)/C=C/c2ccccc2)C(=O)C1	> 100 µM (inactive)	> 100 µM (inactive)	> 100 µM (inactive)	> 100 µM (inactive)	> 100 µM (inactive)	> 100 µM (inactive)	> 61.4 µM (inactive)	> 100 µM (inactive)	34 µM (inactive)	> 100 µM (inactive)	> 100 µM (inactive)	> 100 µM (inactive)	> 100 µM (inactive)	> 100 µM (inactive)	> 100 µM (inactive)	> 100 µM (inactive)	> 100	> 100 µM (inactive)	> 100 µM (inactive)	> 100 µM (inactive)
Nc1nc(Cl)cc(NCC2(CO)CCCC2)n1	> 100 µM (inactive)	> 100 µM (inactive)	> 100 µM (inactive)	55.8 µM (inactive)	> 100 µM (inactive)	> 100 µM (inactive)	> 100 µM (inactive)	> 100 µM (inactive)	> 100 µM (inactive)	59.7 µM (inactive)	> 100 µM (inactive)	> 100 µM (inactive)	> 100 µM (inactive)	> 100 µM (inactive)	> 100 µM (inactive)	> 100 µM (inactive)	> 100	> 100 µM (inactive)	> 100 µM (inactive)	> 100 µM (inactive)
N#Cc1c(-c2nc3ccccc3s2)c(=O)oc2cc(O)ccc12	52 µM (inactive)	31.8 µM (inactive)	27.8 µM (inactive)	32.4 µM (inactive)	42.3 µM (inactive)	18.3 µM (inactive)	22 µM (inactive)	30.3 µM (inactive)	28 µM (inactive)	28.6 µM (inactive)	39.6 µM (inactive)	16.7 µM (inactive)	20 µM (inactive)	> 100 µM (inactive)	41.1 µM (inactive)	31.5 µM (inactive)	27.1	2.25 µM (inactive)	27.8 µM (inactive)	16.7 µM (inactive)
C=C1C[C@@H](O)[C@@H](Br)C(C)(C)[C@]12CCC(C)(Br)C(Cl)C2 (stereo not given in full)	1.7 µM (inactive)	> 50 µM (inactive)	> 50 µM (inactive)	> 50 µM (inactive)	> 50 µM (inactive)	> 50 µM (inactive)	> 50 µM (inactive)	> 50 µM (inactive)	> 50 µM (inactive)	> 50 µM (inactive)	25.4 µM (inactive)	> 50 µM (inactive)	> 50 µM (inactive)	> 50 µM (inactive)	> 50 µM (inactive)	> 50 µM (inactive)	> 50	> 50 µM (inactive)	> 50 µM (inactive)	> 50 µM (inactive)
COc1ccc(C2SCC(=O)N2NC(=O)C(C)Oc2ccccc2C)cc1 (stereo not given)	> 100 µM (inactive)	41.4 µM (inactive)	82.8 µM (inactive)	65.2 µM (inactive)	87.7 µM (inactive)	> 100 µM (inactive)	72.1 µM (inactive)	> 100 µM (inactive)	31 µM (inactive)	60.1 µM (inactive)	> 100 µM (inactive)	> 100 µM (inactive)	> 100 µM (inactive)	80.2 µM (inactive)	> 100 µM (inactive)	57.5 µM (inactive)	54.7	> 100 µM (inactive)	> 100 µM (inactive)	> 100 µM (inactive)
